Key:
MSCs [1] = experiment: Transwell chemotactic assay of MSCs with chemokine receptor antagonists, media conditioned by rd10 retina; format: cell-based, mouse; conditions: towards media conditioned by rd10 (P18) retina; vs vehicle DMSO; working concentrations of Table 2
Protocol: (§1) Chemotactic assays were performed using transwell inserts (pore size, 8 μm, BD Biosciences—353182) and 12-well culture plates. To test migration towards defined chemokine gradients, lower chambers were loaded with 1.2 ml of SF DMEM/F-12-GlutaMAX medium with either mCcl5, mCxcl1, mCxcl10, mCxcl16 or a combination of Ccl5 and mCxcl16 (all 50 ng/ml, Peprotech). For tests of NMDA-damage, mice were sacrificed 24 hpi; rd10 mice were sacrificed at P18. Human retina were dissected and cultured for an initial 12 hours in Neurobasal A medium, as previously described. Afterwards, both mouse and human retina were cultured for 24 hours in SF DMEM/F-12-GlutaMAX and SF Neurobasal A (with or without 1 mM NMDA) respectively. 1.2 ml of the resulting conditioned medium were loaded in the lower chambers of the transwell. The upper chamber was loaded with 2×10^5 MSCs in SF medium. The medium used to resuspend MSCs was matched to the medium in the bottom chamber: either DMEM/F-12-GlutaMAX (to test migration towards medium conditioned by mouse retina) or Neurobasal A (to test migration towards medium conditioned by human retina). […]
(§2) Transwell plates were incubated for 1.5 hours at 37° C. […] For each insert, seven fields were imaged and analysed. Cells were automatically counted using a custom-made macro for the ImageJ software (US National Institutes of Health, Bethesda, Md., USA; http://rsb.info.nih.gov/ij/).

MSCs [2] = experiment: Transwell chemotactic assay of MSCs with chemokine receptor antagonists, media conditioned by NMDA-damaged retina; format: cell-based, mouse; conditions: towards media conditioned by NMDA-damaged (24 hpi) retina; vs vehicle DMSO; working concentrations of Table 2
Protocol: as §1, §2

Structure (SMILES) | migration of MSCs in the presence of receptor inhibitors (MSCs [1]) | migration of MSCs in the presence of receptor inhibitors (MSCs [2])
NS(=O)(=O)c1c(Cl)ccc(NC(=O)Nc2cccc(Cl)c2Cl)c1O [Cxcr2 inhibitor, SB 332235] | not affected | not affected
COc1cc(C(=O)NC2C[C@H]3CCC[C@@H](C2)N3CC(=O)Nc2ccccc2Cl)cc(OC)c1OC (stereo partly shown) [Cxcr6 inhibitor, ML 339] | significantly reduced | significantly reduced

Reference: US20230399622A1, “THERAPY FOR DEGENERATIVE DISEASE AND TISSUE DAMAGE” (FUNDACIÓ CENTRE DE REGULACIÓ GENÒMICA, priority 2020, published 2023)
